This is an account of results in patent US9695150B2, “Crystalline form of a substituted quinoline compound and pharmaceutical compositions thereof” (Sunshine Lake Pharma Co., Ltd., priority 2015, dated 2017).

A short description of one data set: Hygroscopicity test. The format is physicochemical. To be noted: p-toluenesulfonate; for Hygroscopicity (in words): conclusion from Table 4; for Hygroscopic capacity %: 25±1° C. The protocol:
A glass weighing bottle equipped with a stopper was tarred and the weight was recorded as m1. Compound (I) in crystalline form C or amorphous form (about 1.0 g) was placed in the tared weighing bottle and capped with the stopper. The total weight was then recorded as m2. […] The weighing bottle capped with its stopper was weighed on day 5 and day 10 and the weight was recorded as m3.

Data set [1] can be described thus: Pharmacokinetics test in beagle dogs. It is filed as in vivo. The protocol:
The pharmacokinetic properties of amorphous Compound (I) or the crystalline form C of Compound (I) disclosed herein are assessed in beagle dogs. The LC/MS/MS system used in the analysis consists of an Agilent 1200 Series vacuum degasser, binary pump, well-plate autosampler, thermostatted column compartment, the Agilent G6430 Triple Quadrupole Mass Spectrometer with an electrosprayionization (ESI) source. Quantitative analysis was carried out using MRM mode. The parameters for MRM transitions are in the Table A.
An Agilent XDB-C18, 2.1×30 mm, 3.5 μM column was used for the analysis. 5 μL of the samples were injected. Analysis condition: The mobile phase was 0.1% formic acid in water (A) and 0.1% formic acid in methanol (B). The flow rate was 0.4 mL/min. And the gradient of Mobile phase was in the Table B.
Alternatively, an Agilent 6330 series LC/MS/MS spectrometer equipped with G1312A binary pumps, a G1367A autosampler and a G1314C UV detector were used in the analysis. An ESI source was used on the LC/MS/MS spectrometer. The analysis was done in positive ion mode as appropriate and the MRM transition for each analyte was optimized using standard solution. A Capcell MP-C18 100×4.6 mm I.D., […] column (Phenomenex, Torrance, Calif., USA) was used during the analysis. The mobile phase was 5 mM ammonia acetate, 0.1% MeOH in water (A): 5 mM ammonia acetate, 0.1% MeOH in acetonitrile (B) (70/30, v/v). The flow rate was 0.6 mL/min. Column was maintained at ambient temperature. 20 μL of the samples were injected.
The capsule of the crystalline form C or the amorphous of Compound (I) mixed with adjuvants respectively was administered by gavage to beagle dogs in a dose of 7 or 10 mg/kg. The blood samples (0.3 mL) were drawn at 0.25, 0.5, 1.0, 2.0, 3.0, 4.0, 6.0, 8.0, 12 and 24 hour time points or 0.083, 0.25, 0.5, 1.0, 2.0, 4.0, 6.0, 8.0 and 24 hour time points and centrifuged at 3,000 or 4000 rpm for 2 to 10 min. The plasma solutions were collected, and analyzed by LC/MS/MS as described above. The pharmacokinetic parameters were calculated according to non-compartment model using WinNonlin procedure.

Data set [2] is described as follows: Stability test (impurity contents by HPLC after storage of the solid). It is filed as physicochemical. The settings on record: p-toluenesulfonate; for Increase of the impurity contents: illuminating the samples for 10 days.
Assay in data set [3]: as above
It is filed as physicochemical. The settings on record: p-toluenesulfonate. The protocol: A sample of crystalline form C of compound (I) (100˜200 mg) was placed on a watching glass in the form of a thin layer (thickness ≦5 mm). The samples were exposed to the following conditions: high temperature (60±2° C.) for 10 days; high humidity (25±2° C., 90%±5% relative humidity) for 10 days; illumination condition (visible light 4500 lx±500 lx with ultraviolet light not lower than 0.7 W·h/m^2, 25±2° C., 60%±5% relative humidity) for 10 days; and room temperature (30±2° C., 65%±5% relative humidity) for 10 days, respectively. The impurity contents in the samples were determined at different time points (0, 5 and 10 days) by high performance liquid chromatography (HPLC), and the absorption peaks were normalized relative to the highest peak (corresponds to compound I) which is set to 100%.

Where [4] appears, read: dog, plasma, po, capsule by gavage, dose 9.9 mg/kg (Form C), 9.7 mg/kg (Amorphous).
Setting [5] is: high humidity (25±2° C., 90%±5% relative humidity), 0 day.
Where [6] appears, read: high humidity (25±2° C., 90%±5% relative humidity), 5 days.
Setting [7] is: high humidity (25±2° C., 90%±5% relative humidity), 10 days.
[8] abbreviates: high temperature (60±2° C.), 10 days.
[9] abbreviates: illuminating condition (visible light 4500 lx±500 lx with UV, 25±2° C., 60%±5% RH), 10 days.
The mark [10] stands for this setting: room temperature (30±2° C., 65%±5% relative humidity), 0 day.
[11] abbreviates: high temperature (60±2° C.), 0 day.
The mark [12] stands for this setting: high temperature (60±2° C.), 5 days.
The mark [13] stands for this setting: illuminating condition (visible light 4500 lx±500 lx with UV, 25±2° C., 60%±5% RH), 0 day.
The mark [14] stands for this setting: illuminating condition (visible light 4500 lx±500 lx with UV, 25±2° C., 60%±5% RH), 5 days.
[15] abbreviates: room temperature (30±2° C., 65%±5% relative humidity), 5 days.
Setting [16] is: room temperature (30±2° C., 65%±5% relative humidity), 10 days.
The mark [17] stands for this setting: listed as amorphous Compound (I).

SMILES strings stand for the structures.

What is called AUC(0-inf) is total exposure, with the tail of the curve extrapolated. Higher therefore signals more exposure. One may read the Cmax as the highest concentration seen after dosing. In general, Tmax refers to the time from dosing to the highest level. As usually defined, the half-life is the time in which the quantity being followed falls by half. A low value points to fast loss. Regarding `Cc1c(C(=O)Nc2ccc(Oc3ccnc4cc(OCC(C)(C)O)ccc34)c(F)c2)c(=O)n(-c2ccccc2)n1C.Cc1ccc(S(=O)(=O)O)cc1` [Form C, N-(3-fluoro-4-((7-(2-hydroxy-2-methylpropoxy)quinolin-4-yl)oxy)phenyl)-1,5-dimethyl-3-oxo-2-phenyl-2,3-dihydro-1H-pyrazole-4-carboxamide p-toluenesulfonate], the “Hygroscopicity (in words)” value in the data set “Hygroscopicity test” (listed as crystalline form C of compound (I)) is recorded as “not hygroscopic”. In addition, the Hygroscopic capacity % in the data set “Hygroscopicity test” (standing time 5 d) is 0.22%; in the data set “Hygroscopicity test” (standing time 10 d), 0.43%. Moreover, the “Exposure and bioavailability in vivo (in words)” value in data set [1] (Cmax, AUC0-24h and AUC0-∞ compared with amorphous Compound (I)) was “good exposure and bioavailability”. This compound also returned an AUC(0-inf) in data set [1] (setting [4]) of 90.1 µg·h/mL. In data set [1] (setting [4]), this compound displayed a Cmax of 4.75 µg/mL. Moreover, in data set [1] (setting [4]), the time to peak (Tmax) turned out to be 4 h. This compound gave a half-life in data set [1] (setting [4]) of 14.6 h. In data set [1] (dog, plasma, po, capsule by gavage, dose 9.9 mg/kg (Form C), 9.7 mg/kg (Amorphous), read-out: AUC0-24 h), the AUC(0-t) is 59.7 µg·h/mL. Moreover, the The impurity contents in data set [2] (setting [5]) is on record as 2.00%; in data set [2] (setting [6]) it was 1.94%; in data set [2] (setting [7]), 1.92%; in data set [2] (setting [8]), 1.89%; in data set [2] (setting [9]), 2.14%; in data set [2] (setting [10]), 2.00%. In addition, the The impurity contents in data set [3] (setting [11]) was 2.00%; in data set [3] (setting [12]), 1.97%; in data set [3] (setting [13]) it was 2.00%; in data set [3] (setting [14]), 1.97%; in data set [3] (setting [15]), 1.90%; in data set [3] (setting [16]), 1.91%. In addition, the “Increase of the impurity contents” value in data set [2] (listed as crystalline form C of Compound (I)) came out at 0.14%.

For `Cc1c(C(=O)Nc2ccc(Oc3ccnc4cc(OCC(C)(C)O)ccc34)c(F)c2)c(=O)n(-c2ccccc2)n1C.Cc1ccc(S(=O)(=O)O)cc1` [Amorphous, N-(3-fluoro-4-((7-(2-hydroxy-2-methylpropoxy)quinolin-4-yl)oxy)phenyl)-1,5-dimethyl-3-oxo-2-phenyl-2,3-dihydro-1H-pyrazole-4-carboxamide p-toluenesulfonate], the “Hygroscopicity (in words)” value in “Hygroscopicity test” (setting [17]) is listed as “hygroscopic”. Moreover, the Hygroscopic capacity % is recorded as 7.74% in “Hygroscopicity test” (standing time 5 d) and 8.48% in “Hygroscopicity test” (standing time 10 d). Further, the The impurity contents in data set [2] (setting [5]) came out at 0.14%; in data set [2] (setting [6]) it was 0.11%; in data set [2] (setting [7]), 0.07%; in data set [2] (setting [8]), 0.10%; in data set [2] (setting [9]), 0.56%; in data set [2] (setting [10]), 0.14%. Moreover, the The impurity contents in data set [3] (setting [11]) amounted to 0.14%; in data set [3] (setting [12]) it was 0.13%; in data set [3] (setting [13]), 0.14%; in data set [3] (setting [14]), 0.36%; in data set [3] (setting [15]), 0.07%; in data set [3] (setting [16]), 0.07%. Moreover, the “Increase of the impurity contents” value in data set [2] (setting [17]) is 0.42%.
